Results from patent US20050059645A1, “Methods for the treatment of male and female sexual dysfunction” (priority 2003, published 2005).

How the values were obtained:
[1] = test system: ovariectomized female rats; assay: Lordosis behavior test (lordosis quotient) in ovariectomized female rats; assay type: in vivo, rat
Method: Thus, lordosis was selected as an indicator of restoration of female sexual function in ovariectomized female rats and an appropriate indicator for alleviating symptoms of female sexual dysfunction.
(§1) Adult female Sprague Dawley rats (220-250 g) from Charles River Hungary Ltd., Godollo, Hungary, were used. Animals were kept in community cages (4 animals/cage) in a climate-controlled room (23±2° C., 50-60% humidity), with a 14 hour light, 10 hour dark cycle of artificial lighting, using reversed light/dark cycle. Food and water were available ad libitum.
After a minimum five-day acclimatization period, animals were ovariectomized under ether anesthesia, then were left to recover for 3 weeks before testing (reconvalescence). All animals were treated in accordance with the guidelines of the European Communities Council Directive (86/609/EEC) and studies were permitted by the Institutional Animal Care Commission.
Estradiol benzoate and progesterone were obtained from Sigma Chemical Co. Inc., Budapest, Hungary. […] E2-CDS as a 3% complex with HPβCD (E2-CDS-CD) was dissolved in distilled water and diluted with 27% HPβCD solution. E2-CDS-CD was synthesized by Alchem Laboratories Corporation, Alachua, Fla., US.
After recovery from surgery, ovariectomized female rats were divided into four groups and treated once a day for five days intravenously, via a bolus injection through the tail vein, as follows: (1) control, 27% HPβCD solution; (2) 0.003 mg/kg E2-CDS dissolved in 27% HPβCD solution; (3) 0.01 mg/kg E2-CDS dissolved in 27% HPβCD solution; and (4) 0.03 mg/kg E2-CDS dissolved in 27% HPβCD solution. A minimal number of ovariectomized (8 to 12) females were used per group. Intravenous treatments either with E2-CDS or HPβCD (controls) were carried out daily for 5 days beginning 2 days prior to the first day of behavior observations, in a volume of 0.05 ml/100 g body weight.
The behavior test was conducted in a plexiglass observation cage during the dark cycle. During behavioral observations, only a dim red light was on.
An experienced and active male rat was placed in the arena 5 minutes prior to the female. […] The lordosis quotient (LQ) expresses the estrogen effect on sexual receptivity and was calculated as follows: LQ=100×number of lordoses/10 mounts The observation of the sexual behavior of each female was carried out, in the case of E2-CDS, every day for 22 days; in the case of EB, investigations were carried out every day for 10 days. […] Citrated blood samples were taken by retro-orbital sinus puncture under light ether anesthesia. The samples were stored at 4° C. for one hour, then centrifuged at 1000 g for 10 minutes. Plasma was separated and stored at −80° C. until assayed. Plasma LH concentrations from individual samples were measured by double antibody radioimmunoassay kits obtained from Amersham Pharmacia Biotech, Rome, Italy. […] The limit of detection was 15 pg/ml.
(§2) Behavioral changes were analyzed using the Mann-Whitney U test (Siegel, Nonparametric Statistics for the Behavioral Sciences, New York; McGraw-Hill Book Company, Inc., 1956). The Fisher exact test was used for percentage comparisons (Zar, Biostatistical Analysis, Prentice Hall, Inc., Englewood Cliffs, N.J., 1974). Serum LH data were analyzed for each time and treatment group by analysis of variance (ANOVA) followed by Bonferroni posthoc test.

[2] = test system: castrated male rats; assay: Male rat copulatory behavior after orchidectomy; assay type: in vivo
Method: as §1, with “male” for “female”, “(300-400” for “(220-250”, “C.),” for “C., 50-60% humidity),”, “[…] These hormones” for “Food and water”, “dissolved in sunflower oil.” for “available ad libitum.”
After establishment of basal behaviors as discussed below, selected animals were orchidectomized via a single midventral incision and were rehoused.
After repeated testing of animals recovered from orchidectomy as discussed below, rats were divided into four groups and treated intravenously, via a single tail vein injection, with one of the following: group 1: control (27% hydroxypropyl-β-cyclodextrin); group 2: 0.03 mg/kg E2-CDS; group 3: 0.3 mg/kg E2-CDS; and group 4: 3 mg/kg E2-CDS.
Mating was observed during the dark cycle in a plexi observation cage in a room where only a dim red light was on. The male was placed in the observation cage 5 minutes prior to the female.
The following parameters were then measured: • Mount latency (ML): the time from the introduction of the female to the initial mount or intromission; • Intromission latency (IL): the time from introduction of the female to the first intromission; and • Ejaculatory latency (EL): the time from the first intromission to ejaculation.
Sessions were considered negative if IL exceeded 15 minutes.
To establish basal behavior, each male was tested every 5 days until four successive and consistent behavioral patterns were achieved. This pretesting lasted for about four weeks. Approximately half of the animals tested were deemed suitable for orchidectomy.
Twenty-eight days after healing from orchidectomy, the animals were tested again (Day 0) and divided into 4 experimental groups. Only animals displaying ejaculation latencies greater than 15 minutes were included in the study.
Tests of male sexual behavior were conducted 3, 7, 14, 21, 28, 35 and 42 days after drug administration or until the effect disappeared, i.e. until no statistically significant difference was found between groups during two consecutive tests.
Behavioral patterns and related times were recorded manually by skilled observers.
(§3) Four weeks following orchidectomy, groups of rats were treated with one of the following drug doses via tail vein injection: E2-CDS 0.03, 0.3, and 3 mg/kg. Blood samples were collected by orbital sinus puncture under light ether anesthesia. The samples were stored at 4° C. for one hour and centrifuged at 1,000 g for 10 minutes. Plasma was separated and stored at −80° C. until assayed. Plasma LH concentrations from individual samples were measured by double antibody radioimmunoassay kits obtained from Amersham Pharmacia Biotech, Rome, Italy. […] The limit of detection was 15 pg/ml.
as §2
The testing described above was repeated using a dose of 0.03 mg/kg administered as a single i.v. injection, and a dose of 0.01 mg/kg with daily i.v. administration for 10 days. E2-CDS stock solution (40%) was diluted in 27% HPβCD solution.
The copulatory behavior of E2-CDS treated groups was compared to that of the HPβCD control group at 1, 3, 7, 14, and 21 days after i.v. drug administration in the 0.03 mg/kg group and at 1, 3, 7, 14 and 21 days after initial i.v. drug administration in the 0.01 mg/kg×10 days group.

[3] = test system: LH; assay: Plasma LH by radioimmunoassay in orchidectomized male rats; assay type: in vivo, rat; details: for plasma LH level: repeated examination
Method: as §3, §2

[4] = 0.01 mg/kg i.v. once a day for 5 days
[5] = 0.03 mg/kg i.v. once a day for 5 days
[6] = 3.0 mg/kg single i.v., days 14, 21 and 28

Compound: CN1C=CCC(C(=O)O[C@H]2CC[C@H]3[C@@H]4CCc5cc(O)ccc5[C@H]4CC[C@]23C)=C1 [E2-CDS, 17β-[(1-methyl-1,4-dihydro-3-pyridinyl)carbonyloxy]estra-1,3,5(10)-trien-3-ol]
- lordosis quotient, effect ([1]; 0.003 mg/kg i.v. once a day for 5 days): slightly enhanced the lordosis quotient, but these effects were not statistically significant
- duration of LQ increase (after day 11 not statistically significant) [1, 4]: lasted till day 15
- lordosis quotient LQ, effect [1, 4]: significantly enhanced the LQ from day 5 to day 11
- duration of LQ enhancement [1, 5]: from day 3 to day 18
- lordosis quotient LQ, effect [1, 5]: significantly enhanced
- effect on copulatory behavior ([2]; 0.03 mg/kg single i.v., first study): no statistically significant effect
- sexual activity ([2]; 0.03 mg/kg single i.v., repeated study): improved sexual activity, but it was not statistically significant in any observations
- mount frequency ([2]; 0.3 mg/kg single i.v.): significantly increased on day 7
- mount latency ([2]; 0.3 mg/kg single i.v.): sharply reduced from day 7 through day 28
- intromission performance ([2]; 3.0 mg/kg single i.v.): improved in a statistically significant manner from day 14 through day 28
- mount latency ([2]; 3.0 mg/kg single i.v.): sharply reduced from day 7 through day 28
- intromission frequency [2, 6]: statistically significant increase in intromission frequency
- intromission latency [2, 6]: decrease in intromission latency
- effect on re-establishment of copulatory behavior ([2]; 0.3 and 3.0 mg/kg single i.v.): significant at doses of 0.3 and 3.0 mg/kg through day 28
- plasma LH level ([3]; 0.01 mg/kg i.v., 10 daily injections): significantly reduced at the dose of 0.01 mg/kg (10 daily injections) from day 3 to day 14
- plasma LH level ([3]; 0.03 mg/kg single injection): significantly reduced on day 3 only
- plasma LH levels ([3]; 0.3 mg/kg single i.v.): significantly reduced the LH levels on days 1, 3, and 7
- plasma LH levels ([3]; 3 mg/kg single i.v.): suppressed significantly throughout 28 days
